In data set [1] the target is Serine/threonine-protein kinase pim-1 (Homo sapiens, UniProt P11309). Kind of data set: Inhibition of PIM1 kinase (unknown origin) using 5-FAM-labeled BAD peptide as substrate after 90 mins by fluorescence polarization assay. For orientation: Polarisation of emitted light reports the rotation of a fluorescent probe.
For data set [2], the target named is Serine/threonine-protein kinase pim-2 (Homo sapiens, UniProt Q9P1W9). Kind of data set: Inhibition of PIM2 kinase (unknown origin) using 5-FAM-labeled BAD peptide as substrate after 90 mins by fluorescence polarization assay.
The target of data set [3] is Serine/threonine-protein kinase pim-3 (Homo sapiens, UniProt Q86V86). Kind of data set: Inhibition of PIM3 kinase (unknown origin) using 5-FAM-labeled BAD peptide as substrate after 90 mins by fluorescence polarization assay.
Data set [4] can be described thus: Antiproliferative activity against human MV411 cells assessed as cell viability after 24 hrs by MTS assay. As to conditions: MV4-11, 24 h. In kind it is functional, cell-based. On the technique in general: Tetrazolium dyes change colour on reduction, which living cells bring about.
Another data set relates to K562. In words: Antiproliferative activity against human K562 cells assessed as cell viability after 24 hrs by MTS assay. Type of data set: functional, cell-based. The conditions noted are these: K562, 24 h.
Data set [5] can be described thus: Antiproliferative activity against human Jurkat E6-1 cells assessed as cell viability after 24 hrs by MTS assay. Type of data set: functional, cell-based.
The next data set deals with Caco-2. Kind of data set: Permeability across human Caco2 cells. In kind it is ADME, cell-based. For orientation: Caco-2 cells form a polarised layer with tight junctions and transporters.
Data set [6] concerns the target CDK2/Cyclin A2 (Homo sapiens) (UniProt P24941+P20248). Kind of data set: Inhibition of CDK2/cyclinA kinase (unknown origin) at 10 uM. In kind it is protein-complex assay.

As usually defined, the IC50 is the midpoint of a concentration-inhibition curve. The low end stands for higher potency, the high end for lower potency. The term EC50 denotes the concentration that produces a half-maximal response. One may read the inhibition as the relative decrease from the control value, in per cent.

Structures are written as SMILES.

Sequence of Serine/threonine-protein kinase pim-2 (Q9P1W9 whole entry): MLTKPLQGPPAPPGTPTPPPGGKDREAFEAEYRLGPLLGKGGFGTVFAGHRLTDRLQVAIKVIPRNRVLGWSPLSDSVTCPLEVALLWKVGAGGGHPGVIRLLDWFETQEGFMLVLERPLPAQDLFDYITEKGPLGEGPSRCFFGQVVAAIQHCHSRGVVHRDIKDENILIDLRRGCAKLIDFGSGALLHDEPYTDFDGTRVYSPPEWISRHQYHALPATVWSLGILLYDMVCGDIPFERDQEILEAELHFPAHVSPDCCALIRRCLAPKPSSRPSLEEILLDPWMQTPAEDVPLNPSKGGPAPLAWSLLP
Sequence of Serine/threonine-protein kinase pim-1 (P11309 whole entry): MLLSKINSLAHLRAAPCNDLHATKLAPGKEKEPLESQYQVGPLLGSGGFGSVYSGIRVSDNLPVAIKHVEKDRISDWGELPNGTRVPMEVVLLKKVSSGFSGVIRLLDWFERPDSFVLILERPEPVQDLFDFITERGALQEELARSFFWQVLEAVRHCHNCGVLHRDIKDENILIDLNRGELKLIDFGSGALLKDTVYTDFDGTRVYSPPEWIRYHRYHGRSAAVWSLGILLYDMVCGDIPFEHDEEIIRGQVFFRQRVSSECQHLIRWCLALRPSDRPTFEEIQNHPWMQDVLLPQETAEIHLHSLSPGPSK

Turning to `CCN(CC)CCNc1cncc(-c2ccc3[nH]cc(-c4ccnc(N)n4)c3c2)n1`, the IC50 in data set [1] came out at 2.8 nM; in data set [2], 310 nM; in data set [3] it was 9.9 nM.

For `CCOc1cncc(-c2ccc3[nH]cc(-c4ccnc(N)n4)c3c2)n1`, the EC50 was determined as 500 nM in data set [4], 20800 nM with K562 and 15000 nM in data set [5]. For the same compound, the permeability entry with Caco-2 was “permeable”. Besides, the values for the concentration for half-maximal inhibition (IC50) in data set [1], in data set [2] and in data set [3] were 45.1 nM, 740 nM and 50.9 nM, respectively.

For the compound `CN(C)CCNc1cncc(-c2ccc3[nH]cc(C(=O)C4CC4)c3c2)n1`, the IC50 in data set [1] was found to be 270 nM.

As for `CCN(CC)CCCOc1cncc(-c2ccc3[nH]cc(-c4ccnc(N)n4)c3c2)n1`, the EC50 in data set [4] came out at 1500 nM; in the data set on K562 it was 13700 nM; in data set [5], 10900 nM. The IC50 was determined as 34.5 nM in data set [1], 660 nM in data set [2] and 55.7 nM in data set [3].

Regarding `CN(C)CCOc1cncc(-c2ccc3[nH]cc(C(=O)c4ccccc4)c3c2)n1`, in data set [1], inhibition was half-maximal at 400 nM (IC50).

Turning to `CN(C)CCOc1cncc(-c2ccc3[nH]cc(-c4ccnc(N)n4)c3c2)n1`, the EC50 in data set [4] worked out at 2900 nM; with K562, 18500 nM; in data set [5] it was 13500 nM. In addition, the values for the IC50 in data set [1], in data set [2] and in data set [3] were 20.4 nM, 380 nM and 21.7 nM, respectively.

As for `CN(C)CCCOc1cncc(-c2ccc3[nH]cc(-c4ccnc(N)n4)c3c2)n1`, the IC50 worked out at 18.7 nM in data set [1], 540 nM in data set [2] and 20.5 nM in data set [3].

On to `CN(C)CCCNc1cncc(-c2ccc3[nH]cc(-c4ccnc(N)n4)c3c2)n1`, for which the figures for the IC50 in data set [1], in data set [2] and in data set [3] were 18.3 nM, 630 nM and 31.3 nM, respectively.

In data set [1], `CN(C)/C=C/C(=O)c1c[nH]c2ccc(-c3cncc(NCCN(C)C)n3)cc12` yielded a half-inhibitory concentration (IC50) of 370 nM.

On to `CN(C)CCNc1cncc(-c2ccc3[nH]cc(-c4ccnc(N)n4)c3c2)n1`, for which, in the data set with Caco-2, the permeability result was “permeable”. For the same compound, the concentration for half-maximal inhibition (IC50) in data set [1] worked out at 3.4 nM; in data set [2], 110 nM; in data set [3], 6.5 nM.

In the case of `CCN(CC)CCCNc1cncc(-c2ccc3[nH]cc(-c4ccnc(N)n4)c3c2)n1`, the IC50 in data set [1] is 17.2 nM; in data set [2] it was 920 nM; in data set [3] it was 30.2 nM.

In turn, `Nc1nccc(-c2c[nH]c3ccc(Br)cc23)n1` [MERIDIANIN C] returned a 50% inhibitory concentration (IC50) in data set [1] of 1040 nM.

With `CCN(CC)CCOc1cncc(-c2ccc3[nH]cc(-c4ccnc(N)n4)c3c2)n1`, the figures for the EC50 (in data set [4]; in the data set with K562; in data set [5]) were 3300 nM, 17900 nM and 14400 nM, respectively. Moreover, the IC50 in data set [1] came out at 25.8 nM; in data set [2], 590 nM; in data set [3], 30 nM.

As for `CN(C)/C=C/C(=O)c1c[nH]c2ccc(-c3cncc(OCCN(C)C)n3)cc12`, in data set [1], the IC50 was found to be 1130 nM.

For `CC(=O)c1c[nH]c2ccc(-c3cncc(NCCN(C)C)n3)cc12`, the IC50 in data set [1] was 270 nM.

Take `Nc1nccc(-c2c[nH]c3ccccc23)n1`: in data set [6], the inhibition turned out to be 54%.

For the compound `CN(C)CCN(C)c1cncc(-c2ccc3[nH]cc(-c4ccnc(N)n4)c3c2)n1`, the IC50 in data set [1] is 8 nM; in data set [2], 180 nM; in data set [3], 7.8 nM.
